Laboratory results from patent US20230151434A1, “REAWAKENING OF DORMANT TUMOR CELLS BY MODIFIED LIPIDS DERIVED FROM STRESS ACTIVATED NEUTROPHILS” (The Wistar Institute of Anatomy and Biology, priority 2020, published 2023).
Entries after “also recorded” stand apart in the source; their conditions may differ.

Legend:
[1] = system: patients with prostate cancer; settings: cited from earlier work
LL2^cisA cells = test: In vivo stress induction, C57BL/6 mice injected with LL2^cisA cells; set-up: species or system mouse; settings: 0.15 mg/ml in drinking water during stress induction
From the text: A total of 2.5×10^4 KPr^p53A cells were intravenously injected to NOD/SCID mice. Beginning 3 weeks after injection, mice were imaged weekly. Luciferin (PerkinElmer) was intraperitoneally injected in mice before imaging according to the manufacturer's instruction. Mice were imaged with IVIS Spectrum In Vivo Imaging System (IVIS, PerkinElmer) to detect luminescent signal coming from growing cancer cells. Mice were put under anesthesia in the induction chamber with isoflurane vaporizer set to 2.5%, at a flow rate of ˜1.5 liters/min. Mice were then transferred in the IVIS imaging stage nose cone inside the IVIS manifold (IVIS manifold nose cones flow set to ˜0.25 LPM). Animals were monitored by video during imaging. Once the images of luciferase/luciferin activity were acquired, the anesthesia was turned off and the animals were returned to their cages. […] Analysis and quantification were performed with IVIS imaging system Living Image Software 4.7.4 (PerkinElmer). […] When signal was detected, mice were sacrificed, and bioluminescent images of the harvested lung were taken. […] If no bioluminescence was detected in lungs after 80 days from last PMN injection, experiments were terminated, and lung tissue were collected. […] Bioluminescence was not detected in any LL2^CisA-injected mice at 3 weeks after injection. Mice were treated with PMN or PMN-MDSC and analyzed as described above. […]

COc1cccc2c1c(O)c(C(=O)N(C)c1ccc(C(F)(F)F)cc1)c(=O)n2C [tasquinimod]
progression-free survival ([1]; patients with prostate cancer, compared to placebo): prolonged progression-free survival compared to placebo
disease-free survival ([1]; randomized phase III trial): increased disease-free survival
overall survival ([1]; randomized phase III trial): did not affect overall survival
frequency of tumor lesions in stressed LL2^cisA cell-bearing mice (LL2^cisA cells): significantly (P=0.007) reduced frequency of tumor lesions; also recorded: reverting the stress-induced reactivation of dormant tumor cells in mice
